Patent US20230115534A1 (ARKUDA THERAPEUTICS, priority 2019, published 2023)
Structures can show the parent of a compound that is named as a salt.

tested on: progranulin (PGRN); experiment: progranulin induction cellular assay (PGRN assay), ELISA-based readout; conditions: PGRN assay as described: mouse primary microglia, primary cortical neurons and BV-2 cell lines; secreted mouse PGRN in medium by ELISA; cell type for Table B not specified
Method: Cellular Assays: To measure the efficacy of compounds, a progranulin induction cellular assay in mouse primary microglia (pMG), primary cortical neurons, and BV-2 cell lines is used. BV-2 cells are split the day before plating into a 96 well plate format at approximately 80%. Cells should be plated the day before and allowed for 1 hour attachment period and for 16 hour incubation. Levels of progranulin secreted into the cell culture medium or retained in the cell lysate can be quantified using an ELISA-based readout and measurement of secreted mouse PGRN in the medium was assessed by the methodology published by Ghidoni et al. 2012. Standard ELISA kits to measure PGRN are available from vendors such as Adipogen, R&D, and Biovendor.
Table B below presents the results of a PGRN assay as described above.

Structure (SMILES)	EC50 [nM]
N[C@H]1CC[C@H]1OC(=O)N1CCc2ccccc2[C@@H]1c1ccc(F)cc1 (single isomer, unassigned) [Compound 4037]	> 10000
N[C@@H]1CC[C@@H]1OC(=O)N1CCc2ccccc2[C@@H]1c1ccc(F)cc1 (single isomer, unassigned) [Compound 4038]	1690
N[C@@H]1CC[C@H]1OC(=O)N1CCc2ccccc2[C@@H]1c1ccc(F)cc1 (single isomer, unassigned) [Compound 4039, hydrochloride]	1210
N[C@H]1CCC1OC(=O)N1CCc2ccccc2[C@@H]1c1ccc(F)cc1 (single isomer, unassigned) [Compound 4040, hydrochloride]	2330
NC12CC(NC(=O)N3CCc4ccccc4C3c3ccc(F)cc3F)(C1)C2 (single isomer, unassigned) [Compound 4137, N-(3-aminobicyclo[1.1.1]pentan-1-yl)-1-(2,4-difluorophenyl)-3,4-dihydroisoquinoline-2(1H)-carboxamide]	91
NC12CC(NC(=O)N3CCc4ccccc4C3c3ccc(F)cc3F)(C1)C2 (single isomer, unassigned) [Compound 4138, N-(3-aminobicyclo[1.1.1]pentan-1-yl)-1-(2,4-difluorophenyl)-3,4-dihydroisoquinoline-2(1H)-carboxamide]	5590
N[C@@H]1C[C@H](NC(=O)N2CCc3ccccc3[C@@H]2c2ccc(F)cc2)CC(F)(F)C1 (single isomer, unassigned) [Compound 4141]	201
N[C@H]1C[C@@H](NC(=O)N2CCc3ccccc3[C@@H]2c2ccc(F)cc2)CC(F)(F)C1 (single isomer, unassigned) [Compound 4142]	810
NC[C@]1(O)C[C@@H](C(=O)N2CCc3ccccc3[C@@H]2c2ccc(F)cc2)C1 (single isomer, unassigned) [Compound 4153]	130
NC1CCC1COC(=O)N1CCc2ccccc2[C@@H]1c1ccc(F)cc1 (stereo in doubt) [Compound 4062, ((1R,2R)-2-aminocyclobutyl)methyl (S)-1-(4-fluorophenyl)-3,4-dihydroisoquinoline-2(1H)-carboxylate]	334
NC12CC(OC(=O)N3CCc4ccccc4[C@@H]3c3ccc(F)cc3)(C1)C2 [Compound 4001, 3-Aminobicyclo[1.1.1]pentan-1-yl (S)-1-(4-fluorophenyl)-3,4-dihydroisoquinoline-2(1H)-carboxylate]	440
C#CCNC12CC(N(CC#C)C(=O)N3CCc4ccccc4[C@@H]3c3ccc(F)cc3)(C1)C2 [Compound 4006, (S)-1-(4-fluorophenyl)-N-(prop-2-yn-1-yl)-N-(3-(prop-2-yn-1-ylamino)bicyclo[1.1.1]pentan-1-yl)-3,4-dihydroisoquinoline-2(1H)-carboxamide]	> 10000
CS(=O)(=O)CCNC12CC(N(CCS(C)(=O)=O)C(=O)N3CCc4ccccc4[C@@H]3c3ccc(F)cc3)(C1)C2 [Compound 4008, (S)-1-(4-fluorophenyl)-N-(2-(methylsulfonyl)ethyl)-N-(3-((2-(methylsulfonyl)ethyl)amino)bicyclo[1.1.1]pentan-1-yl)-3,4-dihydroisoquinoline-2(1H)-carboxamide]	> 10000
CN(C(=O)N1CCc2ccccc2[C@@H]1c1ccc(F)cc1)C12CC(N)(C1)C2 [Compound 4010, (S)—N-(3-aminobicyclo[1.1.1]pentan-1-yl)-1-(4-fluorophenyl)-N-methyl-3,4-dihydroisoquinoline-2(1H)-carboxamide]	> 10000
O=C(NC12CC(N3CCOCC3)(C1)C2)N1CCc2ccccc2[C@@H]1c1ccc(F)cc1 [Compound 4013, (S)-1-(4-fluorophenyl)-N-(3-morpholinobicyclo[1.1.1]pentan-1-yl)-3,4-dihydroisoquinoline-2(1H)-carboxamide]	> 10000
O=C(OC12CC(NCC(F)(F)F)(C1)C2)N1CCc2ccccc2[C@@H]1c1ccc(F)cc1 [Compound 4014, 3-((2,2,2-trifluoroethyl)amino)bicyclo[1.1.1]pentan-1-yl (S)-1-(4-fluorophenyl)-3,4-dihydroisoquinoline-2(1H)-carboxylate]	> 10000
CS(=O)(=O)NC12CC(OC(=O)N3CCc4ccccc4[C@@H]3c3ccc(F)cc3)(C1)C2 [Compound 4018, 3-(Methylsulfonamido)bicyclo[1.1.1]pentan-1-yl (S)-1-(4-fluorophenyl)-3,4-dihydroisoquinoline-2(1H)-carboxylate]	> 10000
O=C(NC12CC(N3CCS(=O)(=O)CC3)(C1)C2)N1CCc2ccccc2[C@@H]1c1ccc(F)cc1 [Compound 4021, (S)—N-(3-(1,1-dioxidothiomorpholino)bicyclo[1.1.1]pentan-1-yl)-1-(4-fluorophenyl)-3,4-dihydroisoquinoline-2(1H)-carboxamide]	> 10000

The next lines start with the values.

EC50 [nM]	Structure (SMILES)
266	NC12CC(NC(=O)N3CCc4ccccc4[C@@H]3c3ccc(F)cc3)(C1)C2 [Compound 4002, (S)—N-(3-aminobicyclo[1.1.1]pentan-1-yl)-1-(4-fluorophenyl)-3,4-dihydroisoquinoline-2(1H)-carboxamide]
720	NC12CC(NC(=O)N3CCc4ccccc4[C@H]3c3ccc(F)cc3)(C1)C2 [Compound 4003, (R)—N-(3-aminobicyclo[1.1.1]pentan-1-yl)-1-(4-fluorophenyl)-3,4-dihydroisoquinoline-2(1H)-carboxamide]
225	CNC12CC(NC(=O)N3CCc4ccccc4[C@@H]3c3ccc(F)cc3)(C1)C2 [Compound 4004, (S)-1-(4-fluorophenyl)-N-(3-(methylamino)bicyclo[1.1.1]pentan-1-yl)-3,4-dihydroisoquinoline-2(1H)-carboxamide]
> 10000	C#CCNC12CC(NC(=O)N3CCc4ccccc4[C@@H]3c3ccc(F)cc3)(C1)C2 [Compound 4005, (S)-1-(4-fluorophenyl)-N-(3-(prop-2-yn-1-ylamino)bicyclo[1.1.1]pentan-1-yl)-3,4-dihydroisoquinoline-2(1H)-carboxamide 2,2,2-trifluoroacetate]
> 10000	CS(=O)(=O)CCNC12CC(NC(=O)N3CCc4ccccc4[C@@H]3c3ccc(F)cc3)(C1)C2 [Compound 4007, (S)-1-(4-fluorophenyl)-N-(3-((2-(methylsulfonyl)ethyl)amino)bicyclo[1.1.1]pentan-1-yl)-3,4-dihydroisoquinoline-2(1H)-carboxamide 2,2,2-trifluoroacetate]
> 10000	CNC12CC(N(C)C(=O)N3CCc4ccccc4[C@@H]3c3ccc(F)cc3)(C1)C2 [Compound 4009, (S)-1-(4-fluorophenyl)-N-methyl-N-(3-(methylamino)bicyclo[1.1.1]pentan-1-yl)-3,4-dihydroisoquinoline-2(1H)-carboxamide]
5160	C#CCOCCNC12CC(NC(=O)N3CCc4ccccc4[C@@H]3c3ccc(F)cc3)(C1)C2 [Compound 4011, (S)-1-(4-fluorophenyl)-N-(3-((2-(prop-2-yn-1-yloxy)ethyl)amino)bicyclo[1.1.1]pentan-1-yl)-3,4-dihydroisoquinoline-2(1H)-carboxamide]
7810	O=C(NC12CC(N3CCCC3)(C1)C2)N1CCc2ccccc2[C@@H]1c1ccc(F)cc1 [Compound 4012, (S)-1-(4-fluorophenyl)-N-(3-(pyrrolidin-1-yl)bicyclo[1.1.1]pentan-1-yl)-3,4-dihydroisoquinoline-2(1H)-carboxamide]
> 10000	CC(=O)NC12CC(OC(=O)N3CCc4ccccc4[C@@H]3c3ccc(F)cc3)(C1)C2 [Compound 4015, 3-Acetamidobicyclo[1.1.1]pentan-1-yl (S)-1-(4-fluorophenyl)-3,4-dihydroisoquinoline-2(1H)-carboxylate]
> 10000	CC(=O)NC12CC(NC(=O)N3CCc4ccccc4[C@@H]3c3ccc(F)cc3)(C1)C2 [Compound 4016, (S)—N-(3-acetamidobicyclo[1.1.1]pentan-1-yl)-1-(4-fluorophenyl)-3,4-dihydroisoquinoline-2(1H)-carboxamide]
> 10000	CS(=O)(=O)NC12CC(NC(=O)N3CCc4ccccc4[C@@H]3c3ccc(F)cc3)(C1)C2 [Compound 4017, (S)-1-(4-fluorophenyl)-N-(3-(methylsulfonamido)bicyclo[1.1.1]pentan-1-yl)-3,4-dihydroisoquinoline-2(1H)-carboxamide]
2370	O=C(NC12CC(NC(=O)C(F)(F)F)(C1)C2)N1CCc2ccccc2[C@@H]1c1ccc(F)cc1 [Compound 4019]
3290	O=C(NC12CC(NS(=O)(=O)C(F)(F)F)(C1)C2)N1CCc2ccccc2[C@@H]1c1ccc(F)cc1 [Compound 4020, (S)-1-(4-fluorophenyl)-N-(3-((trifluoromethyl)sulfonamido)bicyclo[1.1.1]pentan-1-yl)-3,4-dihydroisoquinoline-2(1H)-carboxamide]
5330	CN(C)C12CC(NC(=O)N3CCc4ccccc4[C@@H]3c3ccc(F)cc3)(C1)C2 [Compound 4022, (S)—N-(3-(dimethylamino)bicyclo[1.1.1]pentan-1-yl)-1-(4-fluorophenyl)-3,4-dihydroisoquinoline-2(1H)-carboxamide]
> 10000	O=C(NC12CC(NCC(F)(F)F)(C1)C2)N1CCc2ccccc2[C@@H]1c1ccc(F)cc1 [Compound 4023, (S)-1-(4-fluorophenyl)-N-(3-((2,2,2-trifluoroethyl)amino)bicyclo[1.1.1]pentan-1-yl)-3,4-dihydroisoquinoline-2(1H)-carboxamide]
> 10000	O=C(NC12CC(N3CCCC3=O)(C1)C2)N1CCc2ccccc2[C@@H]1c1ccc(F)cc1 [Compound 4024, (S)-1-(4-fluorophenyl)-N-(3-(2-oxopyrrolidin-1-yl)bicyclo[1.1.1]pentan-1-yl)-3,4-dihydroisoquinoline-2(1H)-carboxamide]
